{
  "source": "PubChem BioAssay AID214",
  "about": "(DTP/NCI, 2004)",
  "test_system": "B6C3F1 mice, colon carcinoma 38 s.c., T/C",
  "experiment": "NCI In Vivo Anticancer Drug Screen. Data for tumor model Colon Carcinoma 38 (subcutaneous) in B6C3F1 mice",
  "conditions": "higher = larger tumour",
  "description": "The antitumor activity of compounds was measured in mice bearing transplantable tumors. Survival or tumor size were measured and the results are expressed as the measurement made in the treated group (T) divided by the measurement made in the vehicle treated control group (C). The tumor model used in this assay is Colon Carcinoma 38 (subcutaneous) in B6C3F1 mice",
  "key": {"[1]": {"conditions": "endpoint: median tumor weight (est.), dose: 50.0 mg/kg/injection, schedule: Q07DX002 (ip), vehicle: saline"}, "[2]": {"conditions": "endpoint: median tumor weight (est.), dose: 100.0 mg/kg/injection, schedule: Q07DX002 (ip), vehicle: saline"}, "[3]": {"conditions": "endpoint: median tumor weight (est.), dose: 200.0 mg/kg/injection, schedule: Q07DX002 (ip), vehicle: saline"}, "[4]": {"conditions": "endpoint: median tumor weight (est.), dose: 50.0 mg/kg/injection, schedule: Q07DX002 (ip), vehicle: saline with Tween-80"}, "[5]": {"conditions": "endpoint: median tumor weight (est.), dose: 200.0 mg/kg/injection, schedule: Q07DX002 (ip), vehicle: saline with Tween-80"}, "[6]": {"conditions": "endpoint: median tumor weight (est.), dose: 4.0 mg/kg/injection, schedule: Q07DX002 (ip), vehicle: saline"}, "[7]": {"conditions": "endpoint: median tumor weight (est.), dose: 8.0 mg/kg/injection, schedule: Q07DX002 (ip), vehicle: saline"}, "[8]": {"conditions": "endpoint: median tumor weight (est.), dose: 16.0 mg/kg/injection, schedule: Q07DX002 (ip), vehicle: saline"}, "[9]": {"conditions": "endpoint: median tumor weight (est.), dose: 32.0 mg/kg/injection, schedule: Q07DX002 (ip), vehicle: saline"}, "[10]": {"conditions": "endpoint: median tumor weight (est.), dose: 64.0 mg/kg/injection, schedule: Q07DX002 (ip), vehicle: saline"}},
  "note": "Records with an inconclusive call do not appear.",
  "data": [
    {"smiles": "Oc1ccc(CCl)c2cccnc12", "values": [
      {"measurement": "T/C", "setting": "endpoint: median tumor weight (est.), dose: 25.0 mg/kg/injection, schedule: Q07DX002 (ip), vehicle: saline", "value": "91 % of control"},
      {"measurement": "T/C", "setting": "[1]", "value": "105 % of control"},
      {"measurement": "T/C", "setting": "[2]", "value": "94 % of control"},
      {"measurement": "T/C", "setting": "[3]", "value": "106 % of control"}
    ]},
    {"smiles": "ClCc1ccc2ccccc2n1", "values": [
      {"measurement": "T/C", "setting": "[4]", "value": "93 % of control"},
      {"measurement": "T/C", "setting": "endpoint: median tumor weight (est.), dose: 100.0 mg/kg/injection, schedule: Q07DX002 (ip), vehicle: saline with Tween-80", "value": "86 % of control"},
      {"measurement": "T/C", "setting": "[5]", "value": "89 % of control"}
    ]},
    {"smiles": "Nc1ncn(C2OC(CO)C(O)C2O)c(=O)n1", "note": "(stereo not drawn)", "values": [
      {"measurement": "T/C", "setting": "[6]", "value": "60 % of control"},
      {"measurement": "T/C", "setting": "[7]", "value": "82 % of control"},
      {"measurement": "T/C", "setting": "[8]", "value": "33 % of control"},
      {"measurement": "T/C", "setting": "[9]", "value": "6 % of control"},
      {"measurement": "T/C", "setting": "[10]", "value": "2 % of control"}
    ]},
    {"smiles": "O=S(=O)([O-])c1ccc(-c2c3nc(c(-c4ccc(S(=O)(=O)[O-])cc4)c4ccc([n-]4)c(-c4ccc(S(=O)(=O)[O-])cc4)c4nc(c(-c5ccc(S(=O)(=O)[O-])cc5)c5ccc2[n-]5)C=C4)C=C3)cc1.[Mn+3].[Na+]", "values": [
      {"measurement": "T/C", "setting": "endpoint: median tumor weight change, dose: 226.9 mg/kg/injection, schedule: Q07DX002 (iv), vehicle: water", "value": "67 % of control"},
      {"measurement": "T/C", "setting": "endpoint: median tumor weight change, dose: 340.9 mg/kg/injection, schedule: Q07DX002 (iv), vehicle: water", "value": "77 % of control"},
      {"measurement": "T/C", "setting": "endpoint: median tumor weight change, dose: 515.0 mg/kg/injection, schedule: Q07DX002 (iv), vehicle: water", "value": "110 % of control"}
    ]},
    {"smiles": "Cc1c(N)nc([C@H](CC(N)=O)NC[C@H](N)C(N)=O)nc1C(=O)N[C@H](C(=O)N[C@H](C)[C@@H](O)CC(=O)N[C@H](C(=O)NC(O[C@@H]1O[C@@H](C)[C@@H](N)[C@@H](O)[C@H]1O)C(O)c1nc(-c2nc(C(=O)NCCCCN)cs2)cs1)[C@@H](C)O)[C@@H](O[C@@H]1O[C@@H](CO)[C@@H](O)[C@H](O)[C@@H]1O[C@H]1O[C@H](CO)[C@@H](O)[C@H](OC(N)=O)[C@@H]1O)c1c[nH]cn1", "note": "(stereo partly drawn)", "values": [
      {"measurement": "T/C", "setting": "[6]", "value": "54 % of control"},
      {"measurement": "T/C", "setting": "[7]", "value": "35 % of control"},
      {"measurement": "T/C", "setting": "[8]", "value": "13 % of control"},
      {"measurement": "T/C", "setting": "[9]", "value": "25 % of control"},
      {"measurement": "T/C", "setting": "[10]", "value": "9 % of control"}
    ]},
    {"smiles": "CC[C@@H](C)[C@@H]1NC(=O)C(NC(=O)C(CC(C)C)N(C)C(=O)C2CCCN2C(=O)C(C)O)C(C)OC(=O)C(Cc2ccc(OC)cc2)N(C)C(=O)C2CCCN2C(=O)C(CC(C)C)NC(=O)C(C)C(=O)C(C(C)C)OC(=O)C[C@H]1O", "note": "(stereo partly drawn)", "values": [
      {"measurement": "T/C", "setting": "endpoint: median tumor weight (est.), dose: 600.0 micrograms/kg/injection, schedule: Q07DX002 (ip), vehicle: distilled water + alcohol", "value": "118 % of control"}
    ]},
    {"smiles": "CCNC(=O)[B-][N+](C)(C)C", "values": [
      {"measurement": "T/C", "setting": "endpoint: median tumor weight (est.), dose: 25.0 mg/kg/injection, schedule: Q07DX002 (ip), vehicle: Klucel (hydroxypropylcellulose) (HPC)", "value": "101 % of control"},
      {"measurement": "T/C", "setting": "endpoint: median tumor weight (est.), dose: 50.0 mg/kg/injection, schedule: Q07DX002 (ip), vehicle: Klucel (hydroxypropylcellulose) (HPC)", "value": "55 % of control"},
      {"measurement": "T/C", "setting": "endpoint: median tumor weight (est.), dose: 100.0 mg/kg/injection, schedule: Q07DX002 (ip), vehicle: Klucel (hydroxypropylcellulose) (HPC)", "value": "87 % of control"},
      {"measurement": "T/C", "setting": "endpoint: median tumor weight (est.), dose: 200.0 mg/kg/injection, schedule: Q07DX002 (ip), vehicle: Klucel (hydroxypropylcellulose) (HPC)", "value": "107 % of control"},
      {"measurement": "T/C", "setting": "endpoint: median tumor weight (est.), dose: 400.0 mg/kg/injection, schedule: Q07DX002 (ip), vehicle: Klucel (hydroxypropylcellulose) (HPC)", "value": "81 % of control"}
    ]},
    {"smiles": "[Na+]", "values": [
      {"measurement": "T/C", "setting": "endpoint: median tumor weight (est.), dose: 50.0 mg/kg/injection, schedule: Q07DX002 (ip), vehicle: water", "value": "100 % of control"},
      {"measurement": "T/C", "setting": "endpoint: median tumor weight (est.), dose: 100.0 mg/kg/injection, schedule: Q07DX002 (ip), vehicle: water", "value": "57 % of control"},
      {"measurement": "T/C", "setting": "endpoint: median tumor weight (est.), dose: 200.0 mg/kg/injection, schedule: Q07DX002 (ip), vehicle: water", "value": "68 % of control"},
      {"measurement": "T/C", "setting": "endpoint: median tumor weight (est.), dose: 400.0 mg/kg/injection, schedule: Q07DX002 (ip), vehicle: water", "value": "58 % of control"},
      {"measurement": "T/C", "setting": "endpoint: median tumor weight (est.), dose: 800.0 mg/kg/injection, schedule: Q07DX002 (ip), vehicle: water", "value": "63 % of control"}
    ]},
    {"smiles": "CC1c2ccccc2CC(CCN(C)C)c2ccccc21", "note": "(stereo not drawn)", "values": [
      {"measurement": "T/C", "setting": "endpoint: median tumor weight (est.), dose: 12.5 mg/kg/injection, schedule: Q07DX002 (ip), vehicle: saline with Tween-80", "value": "164 % of control"},
      {"measurement": "T/C", "setting": "endpoint: median tumor weight (est.), dose: 25.0 mg/kg/injection, schedule: Q07DX002 (ip), vehicle: saline with Tween-80", "value": "84 % of control"},
      {"measurement": "T/C", "setting": "[4]", "value": "108 % of control"},
      {"measurement": "T/C", "setting": "[5]", "value": "69 % of control"}
    ]},
    {"smiles": "CCC(/C=C/C1OC(=O)C=CC1C)=C\\C(C)C/C=C/C(C)=C/C(C)C(=O)C(C)C(O)C(C)C/C(C)=C/C(=O)O", "note": "(stereo not drawn)", "values": [
      {"measurement": "T/C", "setting": "endpoint: median tumor weight (est.), dose: 100.0 micrograms/kg/injection, schedule: Q07DX002 (ip), vehicle: other", "value": "56 % of control"},
      {"measurement": "T/C", "setting": "endpoint: median tumor weight (est.), dose: 200.0 micrograms/kg/injection, schedule: Q07DX002 (ip), vehicle: other", "value": "105 % of control"},
      {"measurement": "T/C", "setting": "endpoint: median tumor weight (est.), dose: 400.0 micrograms/kg/injection, schedule: Q07DX002 (ip), vehicle: other", "value": "85 % of control"},
      {"measurement": "T/C", "setting": "endpoint: median tumor weight (est.), dose: 800.0 micrograms/kg/injection, schedule: Q07DX002 (ip), vehicle: other", "value": "102 % of control"},
      {"measurement": "T/C", "setting": "endpoint: median tumor weight (est.), dose: 1600.0 micrograms/kg/injection, schedule: Q07DX002 (ip), vehicle: other", "value": "98 % of control"}
    ]},
    {"smiles": "CN(C)/N=N/c1nc[nH]c1C(N)=O", "values": [
      {"measurement": "T/C", "setting": "endpoint: median tumor weight (est.), dose: 90.0 mg/kg/injection, schedule: Q01DX006 (ip), vehicle: carboxymethylcellulose (CMC)", "value": "47 % of control"}
    ]},
    {"smiles": "CCn1cnc2c(=S)nc[nH]c21", "values": [
      {"measurement": "T/C", "setting": "[1]", "value": "85 % of control"},
      {"measurement": "T/C", "setting": "endpoint: median tumor weight (est.), dose: 50.0 mg/kg/injection, schedule: Q07DX002 (ip), vehicle: suspension in saline", "value": "92 % of control"},
      {"measurement": "T/C", "setting": "[2]", "value": "73 % of control"},
      {"measurement": "T/C", "setting": "endpoint: median tumor weight (est.), dose: 100.0 mg/kg/injection, schedule: Q07DX002 (ip), vehicle: suspension in saline", "value": "58 % of control"},
      {"measurement": "T/C", "setting": "[3]", "value": "55 % of control"},
      {"measurement": "T/C", "setting": "endpoint: median tumor weight (est.), dose: 200.0 mg/kg/injection, schedule: Q07DX002 (ip), vehicle: suspension in saline", "value": "16 % of control"},
      {"measurement": "T/C", "setting": "endpoint: median tumor weight (est.), dose: 400.0 mg/kg/injection, schedule: Q07DX002 (ip), vehicle: saline", "value": "1 % of control"}
    ]},
    {"smiles": "CCCNC1=C(C)C(=O)C2=C(C1=O)[C@H](COC(N)=O)[C@]1(OC)[C@@H]3N[C@@H]3CN21", "values": [
      {"measurement": "T/C", "setting": "endpoint: median tumor weight (est.), dose: 1.5 mg/kg/injection, schedule: Q07DX002 (ip), vehicle: suspension in saline", "value": "73 % of control"},
      {"measurement": "T/C", "setting": "endpoint: median tumor weight (est.), dose: 3.0 mg/kg/injection, schedule: Q07DX002 (ip), vehicle: suspension in saline", "value": "114 % of control"},
      {"measurement": "T/C", "setting": "endpoint: median tumor weight (est.), dose: 6.0 mg/kg/injection, schedule: Q07DX002 (ip), vehicle: suspension in saline", "value": "112 % of control"},
      {"measurement": "T/C", "setting": "endpoint: median tumor weight (est.), dose: 12.0 mg/kg/injection, schedule: Q07DX002 (ip), vehicle: suspension in saline", "value": "33 % of control"},
      {"measurement": "T/C", "setting": "endpoint: median tumor weight (est.), dose: 24.0 mg/kg/injection, schedule: Q07DX002 (ip), vehicle: suspension in saline", "value": "36 % of control"}
    ]}
  ]
}
